Results as given in patent US10781470B2, “Diagnosis and treatment of incipient diabetes” (priority 2015, dated 2020).

Tested on: stool alkaline phosphatase (AP)
Assay: Stool alkaline phosphatase assay in presence of AP isoform inhibitors
Settings: stool supernatant; for inhibition of the AP activity in the stool: inhibitor 10 mM, pNPP substrate
Protocol: Homogenization of stool: The supernatant of a homogenized stool suspension was used for IAP assay. A small amount of stool (milligrams) was measured and then the ‘stool dilution buffer’ (10 mM (millimolar) Tris-HCl, pH 8.0, 1 mM magnesium chloride, 10 μM (micromolar) zinc chloride) at a defined ratio was added. Usually, 50 μl (microliter) of stool dilution buffer was added to 1 mg of stool. The sample was vigorously vortexed to prepare a homogenized stool suspension, which was then centrifuged at 10,000×g for 20 min, and the supernatant containing IAP was collected and assayed for IAP concentration.
Alkaline Phosphatase Assay. The stool supernatant was assayed for alkaline phosphatase (AP) following an established protocol using the automatic biochemistry analyzer mentioned above (Nanjing, Jiangsu, China). In brief, 20 of supernatant was added to 1 ml of enzyme assay buffer (1.25 M diethanolamine (DEA) buffer, pH 10.2, 0.6 mM magnesium chloride) containing 10 mM p-nitrophenyl phosphate (pNPP), and the reaction mixture was incubated for one min at 37° C. followed by measuring the AP concentration by the analyzer pre-calibrated with AP standards. To determine the major isoform among stool APs, prior to assaying for AP activity an aliquot of stool sample was treated for 10 min with L-phenylalanine (L-Phe, 10 mM final conc.), a specific inhibitor of LAP, and another aliquot with L-homoarginine (L-Arg, 10 final conc.), an inhibitor of tissue non-specific alkaline phosphatase (TNAP). Each aliquot treated with an inhibitor was then mixed with the reaction buffer containing an equal concentration (10 mM) of the respective inhibitor, and assayed for AP activity using the analyzer. […] All AP assays were performed by a single laboratory technologist who was blinded to the diagnoses of participants. […]
Stool samples of non-diabetic healthy controls and T2DM patients were homogenized in a stool dilution buffer followed by centrifuging and collection of supernatant. […] Statistics: Values are expressed as mean+/−SEM. […]

SMILES | inhibitory effect on the stool AP activity (either group (healthy controls and T2DM patients)) | inhibition of the AP activity in the stool (total diabetic (T2DM) population) | inhibition of the AP activity in the stool (total healthy population)
N=C(N)NCCCC[C@H](N)C(=O)O [L-Arg, L-homoarginine] | no inhibitory effect | – | –
N[C@@H](Cc1ccccc1)C(=O)O [L-Phe, L-phenylalanine] | – | approx. 70% | approx. 80%
